The values that follow come from US20260374792A1, “PHENYL-FREE BISCATIONIC QUATERNARY PHOSPHONIUM COMPOUNDS AS ANTIMICROBIAL AGENTS” (priority 2022, published 2026).

One series relates to A. baumannii. Briefly: MBEC, biofilm eradication, A. baumannii. As to conditions: 24 hours, 37 °C, TSB. It is filed as cell-based, Acinetobacter baumannii. The method, then:
(§1) A regrowth assay was used to establish the MBEC of a compound to evaluate the antibiofilm activity.
Biofilm eradication experiments were performed using a pegged-lid microtiter plate assay to determine the MBEC values for compounds of interest, as previously described. […] Sci. Rep. 2017, 7, 2003; and Raval, Y. S., Flurin, L., Mohamed, A., Greenwood-Quaintance, K. E., Beyenal, H., & Patel, R. In Vitro Activity of Hydrogen Peroxide and Hypochlorous Acid Generated by Electrochemical Scaffolds Against Planktonic and Biofilm Bacteria. Antimicrob Agents Chemother. 2021, 65, e01966-20. Briefly, […] of mid-log phase culture diluted to ca. 10^6 CFU/mL in tryptic soy broth (TSB) was added to wells of plat-bottom 96-well plates (Thermo Scientific, 266120) and covered with 96-pegged lid (Thermo Scientific, 445497). Plates were incubated to establish bacterial biofilms after incubation at 37 °C for 24 hours. The pegged lid was then removed, washed with PBS, and transferred to another 96-well plate containing 2-fold serial dilutions of the test compounds (the “challenge plate”). The total volume in each well was […], comprising of […] of compound diluted in water/DMSO, with a starting DMSO concentration of 2.5%, and […] of TSB. Plates were incubated statically at 37 °C for 24 hours. Next, the pegged lids were transferred to a fresh 96-well plate containing […] of TSB and incubated overnight at 37 °C. MBEC values were determined as the lowest test concentration that resulted eradicated biofilm (i.e., wells displaying no turbidity in the final plate).

Series [1] can be described thus: Dynamic surface tension (bubble pressure tensiometer). The series is classed as physicochemical. As to conditions: 100, 300 and 1000 ppm in deionized water, 22 °C; 10 to 10,000 ms surface age. The method, then:
All samples were analyzed using a Krüss BPT Mobile bubble pressure tensiometer. Solutions of 12(2)12 and ^MeP2P-12,12 were made in concentrations of 100, 300 and 1000 ppm using deionized water. Measurements were conducted at 22+1 °C. Before each sample run, a new capillary tip was installed and the instrument was calibrated with deionized water. The dynamic surface tension (mN/m) was measured as a function of surface bubble age (30 collection points over the range of 10 to 10,000 ms).
In order to further investigate these highly analogous bis-cationic structures, a Krüss bubble pressure tensiometer was utilized to measure the dynamic surface tension of 12(2)12 and ^MeP2P-12,12.
Antimicrobial activity is expected to be affected by differences in solution behavior of amphiphilic molecules, such as the propensity to form micelles and solution dispersion rates. Structural factors such as nature of the charge and the alkyl chain length of the amphiphile have been previously reported to change the behavior of surfactants. These types of structural factors are consistent with the factors that influence the inventors' proposed mechanism of action for bacteria membrane disruption by multicationic QACs. […]

Another series concerns MSSA (SH1000). As to the kind of experiment: MIC against methicillin-susceptible S. aureus (MSSA). It is filed as cell-based. As to conditions: Staphylococcus aureus; MSSA (SH1000); 72 hours, 37 °C; read-out: MIC. The method, then: The term “minimum inhibitory concentration (MIC)” means the lowest concentration of an antimicrobial agent that will inhibit the visible growth of a microorganism after overnight incubation. MIC values against bacteria, for example, the Gram-positive Staphylococcus aureus and Enterococcus faecalis and the Gram-negative Escherichia coli and Pseudomonas aeruginosa were determined by standard methods. See also P. A. Wayne, Methods for Dilution Antimicrobial Tests for Bacteria that Grow Aerobically; Approved Standard, Ninth Edition, 2012, CLSI Document M07-A9, Vol. 32 No. 2.
Biological testing procedures were adapted from prior work by Melander and coworkers. For all biological assays, laboratory strains of methicillin-susceptible Staphylococcus aureus MSSA (SH1000), Staphylococcus aureus CA-MRSA (USA300-0114), Staphylococcus aureus HA-MRSA (ATCC 33591), Escherichia coli (MC4100), Enterococcus faecalis (OG1RF), Acinetobacter baumannii (ATCC 17978), were grown with shaking at 37 °C overnight from freezer stocks in 5 mL of the indicated media: SH1000, OG1RF, MC4100, USA300-0114, and ATCC 17978 were grown in BDTM Mueller-Hinton broth (MHB), whereas ATCC 33591 was grown in BDTM tryptic soy broth (TSB). The inoculum were then streaked onto Mueller-Hinton agar (MHA) plates and grown overnight at 37 °C. From the plates, single colonies were selected, diluted into 50 mL of fresh media and grown overnight at 37 °C with shaking for use in the MIC assays. Optical density (OD) measurements were obtained using a SpectraMax iD3 plate reader (Molecular Devices, United States).
Compounds were serially diluted two-fold from stock solutions (1.0 mM) to yield twelve 100 μL test concentrations, wherein the starting concentration of dimethyl sulfoxide (DMSO) was 2.5%. Overnight S. aureus, E. faecalis, E. coli, A. baumannii, USA300-0114 (CA-MRSA), and ATCC 33591 (HA-MRSA) cultures were diluted to ca. 10^6 CFU/mL in MHB or TSB and regrown to mid-exponential phase, as determined by optical density recorded at 600 nm (OD600). All cultures were then diluted again to ca. 10^6 CFU/mL and 100 μL were inoculated into each well of a U-bottom 96-well plate (Corning, 351177) containing 100 μL of compound solution. Plates were incubated statically at 37 °C for 72 hours upon which wells were evaluated visually for bacterial growth. The MIC was determined as the lowest concentration of compound resulting in no bacterial growth visible to the naked eye, based on the highest value in three independent experiments. Aqueous DMSO controls were conducted as appropriate for each compound.
The prepared library of biscationic amphiphilic compounds was assessed for performance as antibacterial disinfectants by determining the minimum inhibitory concentration (MIC) for each against a panel of bacteria. The bacteria selected for the study were chosen to evaluate the broad spectrum antimicrobial performance of the QPCs, and therefore, included both Gram-positive and Gram-negative bacterial strains, including those with known antimicrobial resistance mechanisms. These bacteria include the Gram-positive strains of methicillin-susceptible Staphylococcus aureus [MSSA; SH1000], community-acquired methicillin-resistant Staphylococcus aureus [CA-MRSA; USA 300-0114], hospital-acquired methicillin-resistant Staphylococcus aureus [HA-MRSA; ATCC 33591] and the […], Escherichia coli [MC4100], Acinetobacter baumannii [ATCC 17498] and Pseudomonas aeruginosa [PAO1].

Another series concerns established biofilm. Briefly: Biofilm eradication (MBEC) over the strains tested. As to conditions: pegged-lid microtiter plate assay. The series is classed as cell-based. The method, then:
as §1
Biofilm eradication experiments were performed using a pegged-lid microtiter plate assay to determine the MBEC values for compounds of interest, as previously described. […] Sci. Rep. 2017, 7, 2003; and Raval, Y. S., Flurin, L., Mohamed, A., Greenwood-Quaintance, K. E., Beyenal, H., & Patel, R. In Vitro Activity of Hydrogen Peroxide and Hypochlorous Acid Generated by Electrochemical Scaffolds Against Planktonic and Biofilm Bacteria. Antimicrob Agents Chemother. 2021, 65, e01966-20. Briefly, […] of mid-log phase culture diluted to ca. 10^6 CFU/mL in tryptic soy broth (TSB) was added to wells of plat-bottom 96-well plates (Thermo Scientific, 266120) and covered with 96-pegged lid (Thermo Scientific, 445497). […] MBEC values were determined as the lowest test concentration that resulted eradicated biofilm (i.e., wells displaying no turbidity in the final plate).
Pleased by the activity of the phosphonium compounds, the inventors sought to further investigate the antibacterial properties while comparing the effects of the heteroatom on activity. To do so, the inventors determined the minimum biofilm eradication concentration (MBEC) of bisQPC ^MeP2P-12,12 and analogous bisQAC 12(2)12 using a pegged-lid microtiter plate assay.

`CCCCCCCCCCCC[P+](C)(C)CC[P+](C)(C)CCCCCCCCCCC` [^MeP2P-12,12] displayed an MBEC in the series on A. baumannii of 8 µM. In addition, the “dynamic surface tension (in words)” value in series [1] is listed as “behave almost identically in solution”. The MIC (commonly the smallest concentration in the dilution series that meets the test's criterion for growth inhibition) in the series with MSSA (SH1000) is 2 µM. Moreover, the “ability to eradicate established biofilm (in words)” value with established biofilm was “ability to eradicate established biofilm against three of the strains tested”.
The corresponding values for `CCCCCCCCCCCC[N+](C)(C)CC[N+](C)(C)CCCCCCCCCCCC` [12(2)12, reference compound] are 4 µM, “behave almost identically in solution”, 2 µM and “ability to eradicate established biofilm against three of the strains tested”.
